We go through 12 compounds from PubChem BioAssay (NCI).

Among the test systems are MCF7 breast; SK-OV-3 ovarian; SF-295 CNS; HS 578T breast; HL-60(TB) leukemia; HCC-2998 colon; BT-549 breast; UACC-257 melanoma; MDA-MB-231 breast; COLO 205 colon.
Holding throughout (assay): NCI-60 cell line screen, 48 h

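Assay format: 96-well plates, 48-hour exposure. GI50 is the concentration that inhibits growth by half. At the TGI there is no net growth.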 A value given as a limit tells only on which side of the number the result lay.

With `CCOC(=O)c1sc(-c2ccc(OS(=O)(=O)c3ccc(Br)s3)c(C=O)c2)nc1C`, the GI50 was 2.86 µM in the assay with MCF7 breast; 36.4 µM with SK-OV-3 ovarian; 5.08 µM in the assay with SF-295 CNS; 10.6 µM with HS 578T breast; 3.66 µM in the assay on HL-60(TB) leukemia; 13.3 µM with HCC-2998 colon. The GI50 in the assay with BT-549 breast was 2.51 µM; with UACC-257 melanoma it was 18.6 µM; in the assay on MDA-MB-231 breast, 2.75 µM; in the assay on COLO 205 colon it was 16.8 µM. For the same compound, the TGI with MCF7 breast was 8.97 µM; in the assay on SK-OV-3 ovarian, 97.1 µM; in the assay on SF-295 CNS, 18.4 µM; in the assay with HS 578T breast, 36.3 µM; with HL-60(TB) leukemia it was 19.7 µM; with HCC-2998 colon, 29.3 µM. The TGI was 6.57 µM in the assay with BT-549 breast, 64.7 µM in the assay on UACC-257 melanoma, 10.1 µM in the assay with MDA-MB-231 breast and 33.8 µM in the assay on COLO 205 colon.
As for `O=C(CC(c1ccccc1)c1c(O)c2ccccc2oc1=O)c1ccccc1` (configuration not stated), the TGI in the assay on MCF7 breast, in the assay with SK-OV-3 ovarian, in the assay on SF-295 CNS, in the assay on HS 578T breast, in the assay on HL-60(TB) leukemia and in the assay with HCC-2998 colon was > 100 µM in each case. In addition, the TGI with BT-549 breast, in the assay with UACC-257 melanoma, in the assay with MDA-MB-231 breast and with COLO 205 colon was > 100 µM throughout.
Turning to `COC(=O)c1c2c(c[n+]([O-])c1C)C(=O)C=CC2=O`, the GI50 in the assay on MCF7 breast was 1.65 µM; in the assay with SK-OV-3 ovarian, 19.3 µM; in the assay with SF-295 CNS, 3.43 µM; in the assay on HS 578T breast it was 2.17 µM; in the assay on HL-60(TB) leukemia, 2.13 µM; with HCC-2998 colon it was 4.25 µM. For the same compound, the GI50 was 1.78 µM in the assay with BT-549 breast, 2.26 µM in the assay on UACC-257 melanoma, 2.01 µM in the assay on MDA-MB-231 breast and 1.85 µM with COLO 205 colon. For the same compound, the TGI in the assay on MCF7 breast came out at 3.46 µM; in the assay with SK-OV-3 ovarian it was 51.1 µM; in the assay with SF-295 CNS, 13.2 µM; in the assay on HS 578T breast, 6.04 µM; in the assay with HL-60(TB) leukemia, 5.75 µM; with HCC-2998 colon, 15.5 µM. Also, the TGI with BT-549 breast came out at 3.23 µM; in the assay with UACC-257 melanoma it was 5.54 µM; in the assay on MDA-MB-231 breast it was 5.46 µM; in the assay on COLO 205 colon it was 3.93 µM.
On to `COc1ccc(-c2cc(=O)c3ccc(C)nc3[nH]2)cc1`, for which the TGI in the assay on MCF7 breast, in the assay on SK-OV-3 ovarian, with SF-295 CNS, with HS 578T breast, in the assay with HL-60(TB) leukemia and in the assay on HCC-2998 colon was > 100 µM each time. Further, the TGI with BT-549 breast, with UACC-257 melanoma, with MDA-MB-231 breast and with COLO 205 colon was > 100 µM each time. Moreover, the GI50 is 88.3 µM with SF-295 CNS and > 100 µM in the assay on HL-60(TB) leukemia.
Take `[Cl][Hg][Cl]`: the GI50 in the assay with MCF7 breast was 12.5 µM; in the assay on SK-OV-3 ovarian it was 20.2 µM; with SF-295 CNS, 16.7 µM; with HS 578T breast it was 22.8 µM; in the assay on HL-60(TB) leukemia it was 3.24 µM; with HCC-2998 colon it was 17.5 µM. Also, the GI50 in the assay with BT-549 breast was 20.3 µM; in the assay on UACC-257 melanoma, 17.7 µM; in the assay on MDA-MB-231 breast, 17.1 µM; in the assay on COLO 205 colon, 10.3 µM. Also, the TGI in the assay on MCF7 breast is > 56 µM; in the assay with SK-OV-3 ovarian, 34.5 µM; with SF-295 CNS it was 31.9 µM; with HS 578T breast it was 57.4 µM; in the assay on HL-60(TB) leukemia it was 10.1 µM; with HCC-2998 colon, 31.7 µM. The TGI is 34.8 µM in the assay on BT-549 breast, 34.9 µM in the assay with UACC-257 melanoma, 31.7 µM in the assay on MDA-MB-231 breast and 24.6 µM in the assay with COLO 205 colon.
In the case of `C=C(C)C(=O)O[C@H]1C[C@@]23O[C@@H]2CCC(=C[C@H]2OC(=O)C(=C)[C@H]12)COC3O` (some centres not stated), the TGI with MCF7 breast was > 100 µM; in the assay with SK-OV-3 ovarian, > 100 µM; with SF-295 CNS, > 100 µM; with HS 578T breast, > 100 µM; in the assay on HL-60(TB) leukemia, 48.3 µM; in the assay on HCC-2998 colon it was > 100 µM. For the same compound, the TGI was > 100 µM in the assay with BT-549 breast, > 100 µM in the assay on UACC-257 melanoma, > 100 µM with MDA-MB-231 breast and 56.8 µM with COLO 205 colon.
`CN(C)CCCOc1ccc(-c2ccc3ncc4c(c3c2)n(C2CCOCC2)c(=O)n4C)cn1`: the GI50 in the assay with MCF7 breast was 0.545 µM; in the assay on SK-OV-3 ovarian, 0.514 µM; in the assay with SF-295 CNS, 1.29 µM; with HS 578T breast, 0.902 µM; in the assay on HL-60(TB) leukemia it was 2.48 µM; in the assay on HCC-2998 colon, 2.51 µM. In addition, the GI50 is 1.32 µM in the assay with BT-549 breast, 1.94 µM in the assay on UACC-257 melanoma, 1.31 µM in the assay with MDA-MB-231 breast and 0.825 µM in the assay on COLO 205 colon. The TGI in the assay with MCF7 breast was 14.5 µM; in the assay with SK-OV-3 ovarian, 4.19 µM; with SF-295 CNS it was 7.81 µM; with HS 578T breast, 10.1 µM; in the assay with HL-60(TB) leukemia, 15.9 µM; in the assay on HCC-2998 colon, 15.6 µM. Further, the TGI in the assay on BT-549 breast stood at 8.99 µM; in the assay on UACC-257 melanoma it was 12.2 µM; in the assay with MDA-MB-231 breast, 11.7 µM; in the assay on COLO 205 colon, 3.28 µM.
Turning to `CO[C@H]1/C=C/O[C@@]2(C)Oc3c(C)c(O)c4c(c3C2=O)C(=O)C(/C=N/N(c2ccccc2)c2ccccc2)=C(NC(=O)/C(C)=C\C=C\[C@H](C)[C@H](O)[C@@H](C)[C@@H](O)[C@@H](C)[C@H](OC(C)=O)[C@@H]1C)C4=O`, the GI50 in the assay with MCF7 breast was 1.95 µM; with SK-OV-3 ovarian, 1.81 µM; in the assay on SF-295 CNS it was 1.59 µM; in the assay on HS 578T breast it was 2.04 µM; in the assay with HL-60(TB) leukemia, 2.17 µM; with HCC-2998 colon, 2.07 µM. Moreover, the GI50 is 1.61 µM with BT-549 breast, 1.84 µM in the assay with UACC-257 melanoma, 1.7 µM with MDA-MB-231 breast and 1.75 µM in the assay with COLO 205 colon. Moreover, the TGI amounted to 4.23 µM with MCF7 breast; 3.28 µM with SK-OV-3 ovarian; 3 µM in the assay on SF-295 CNS; 5.39 µM with HS 578T breast; 4.7 µM in the assay with HL-60(TB) leukemia; 4.08 µM in the assay with HCC-2998 colon. For the same compound, the TGI came to 3.06 µM with BT-549 breast, 3.9 µM in the assay on UACC-257 melanoma, 3.35 µM in the assay with MDA-MB-231 breast and 3.46 µM in the assay with COLO 205 colon.
Turning to `O=C(CO[N+](=O)[O-])Nc1ccc(C(=O)/C=C/c2ccc(Cl)cc2)cc1`, the GI50 is 0.666 µM in the assay with MCF7 breast; 10.1 µM with SK-OV-3 ovarian; 5.82 µM with SF-295 CNS; 2.85 µM with HS 578T breast; 3.59 µM in the assay with HL-60(TB) leukemia; 1.75 µM in the assay with HCC-2998 colon. Also, the GI50 is 1.86 µM with BT-549 breast, 4.33 µM in the assay on UACC-257 melanoma, 5.39 µM with MDA-MB-231 breast and 2.57 µM with COLO 205 colon. In addition, the TGI was 6.44 µM with MCF7 breast; 65.9 µM in the assay on SK-OV-3 ovarian; 29.2 µM with SF-295 CNS; 14.2 µM in the assay with HS 578T breast; > 100 µM in the assay on HL-60(TB) leukemia; 3.64 µM in the assay on HCC-2998 colon. In addition, the TGI in the assay with BT-549 breast worked out at 5 µM; in the assay with UACC-257 melanoma, 15.9 µM; with MDA-MB-231 breast, 21.2 µM; in the assay on COLO 205 colon, 6.09 µM.
In the case of `OCc1ccc(-c2ccc(-c3ccc(CO)o3)[se]2)o1`, the GI50 with MCF7 breast was 5.53 µM; in the assay on SK-OV-3 ovarian, > 100 µM; in the assay on SF-295 CNS, > 40.8 µM; in the assay on HS 578T breast, > 79 µM; in the assay on HL-60(TB) leukemia it was 39.7 µM; in the assay on HCC-2998 colon, > 100 µM. Further, the GI50 was 46.4 µM in the assay with BT-549 breast, 1.49 µM in the assay with UACC-257 melanoma, > 83.7 µM in the assay on MDA-MB-231 breast and 60.2 µM with COLO 205 colon. Moreover, the TGI in the assay on MCF7 breast, in the assay with SK-OV-3 ovarian, with SF-295 CNS, with HS 578T breast, with HL-60(TB) leukemia and in the assay with HCC-2998 colon was > 100 µM each time. Also, the TGI is > 100 µM with BT-549 breast, > 20.8 µM with UACC-257 melanoma, > 100 µM in the assay on MDA-MB-231 breast and > 100 µM in the assay on COLO 205 colon.
As to `O=c1c(Oc2ccc(F)cc2F)cc2cnc(NC3CCOCC3)nc2n1CCCO`, the GI50 in the assay with MCF7 breast, in the assay on SK-OV-3 ovarian, with SF-295 CNS, in the assay with HS 578T breast, with HL-60(TB) leukemia and with HCC-2998 colon was > 25 µM throughout. Also, the GI50 in the assay on BT-549 breast, in the assay with UACC-257 melanoma, with MDA-MB-231 breast and in the assay on COLO 205 colon was > 25 µM each time. Moreover, the TGI in the assay on MCF7 breast, in the assay with SK-OV-3 ovarian, in the assay with SF-295 CNS, in the assay on HS 578T breast, with HL-60(TB) leukemia and with HCC-2998 colon was > 25 µM each time. The TGI with BT-549 breast, in the assay with UACC-257 melanoma, in the assay on MDA-MB-231 breast and in the assay on COLO 205 colon was > 25 µM each time.
In the case of `CCc1cccc(C)c1NC(=O)c1sc2nc3c(cc2c1N)CCCCC3`, the GI50 with MCF7 breast was 1.86 µM; in the assay on SK-OV-3 ovarian it was 5.24 µM; in the assay with SF-295 CNS it was 3.05 µM; in the assay with HS 578T breast, 4.87 µM; in the assay on HL-60(TB) leukemia, 2.85 µM; in the assay with HCC-2998 colon, 12.4 µM. The GI50 in the assay on BT-549 breast was 5.18 µM; in the assay with UACC-257 melanoma it was 18.2 µM; with MDA-MB-231 breast, 4.35 µM; in the assay with COLO 205 colon it was 2.98 µM. In addition, the TGI in the assay on MCF7 breast was > 100 µM; with SK-OV-3 ovarian, > 100 µM; in the assay on SF-295 CNS, > 100 µM; with HS 578T breast, > 100 µM; in the assay with HL-60(TB) leukemia, 11.8 µM; in the assay on HCC-2998 colon it was 85.8 µM. Besides, the TGI was 54.9 µM with BT-549 breast, > 100 µM in the assay on UACC-257 melanoma, > 100 µM with MDA-MB-231 breast and 15.2 µM in the assay on COLO 205 colon.
